Test results published in patent publication US20240279278A1, “NMU RECEPTOR 2 AGONISTS” (Boehringer Ingelheim International GmbH, priority 2023, published 2024).
Residues, ends and D or L forms follow the SMILES beside them.

Key:
[1] = molecular target: T1, human NMUR2 receptor (Homo sapiens, UniProt Q9GZQ4); assay: IP1 Gq HTRF assay, activation of human NMUR2 in human plasma; type: cell-based; parameters: expressed in transfected cells; host or cells: CHO-K1; conditions: CHO-K1 cells expressing human NMUR2, 100% human plasma; read-out: EC50 (hNMUR2) human plasma
Text: Example 4: IP1 Gq HTRF Assay Activation of Human NMUR2 in Human Plasma Application of the Homogenous Time Resolved Fluorescence (HTRF) technology optimized for Gq coupled receptors has been described in detail in the Cisbio IP-One Gq kit manual. In brief, a FRET signal is generated between the donor label of an IP-One antibody (anti-IP1-Tb) and the acceptor label of a tagged IP-One (IP1-d2). Agonism of a Gq coupled receptor increases intracellular IP-One, which competes with labeled IP-One and leads to a reduction of the FRET signal. Frozen stocks of CHO-K1 cells stably expressing the human NMUR1 receptor or human NMUR2 receptor were thawed and 5000 cells were seeded in culture medium (HAM'S F12, 10% FCS) into each well of a 384-well assay plate. After seeding, cells were incubated for 24 h in a humidified incubator at 37° C. and 5% CO2. Next, cells were washed once with […] of wash buffer (20 mM Hepes, 1×HBSS, pH 7.4), followed by addition of […] (100% human plasma, 50 mM LiCl). Peptide agonists to be tested were dissolved in 100% DMSO and pre-diluted in plasma at a suitable concentration range for an 8 pt dose-response curve. 5 μL of peptide pre-dilution were then added to each well, followed by another 5 μL of plasma to give a final concentration of 1% DMSO. Samples were subsequently incubated for 1 hour in a humidified incubator at 37° C. The plasma solution was replaced by 20 μL of stimulation buffer. After addition of 5 μL each of IP1-d2 and anti-IP1-Tb, samples were incubated for another 1 hour at room temperature and FRET signals (ratio 665 nm/620 nm) were measured. EC50 values were calculated by nonlinear regression using a 4-parameter sigmoidal curve fit.

[2] = molecular target: T1, human NMUR2 receptor; assay: IP1 Gq HTRF assay, activation of human NMUR2 in buffer; type: cell-based; parameters: expressed in transfected cells; host or cells: CHO-K1; conditions: CHO-K1 cells expressing human NMUR2, stimulation buffer with 0.1% BSA; read-out: EC50 (hNMUR2) buffer
Text: Example 3: IP1 Gq HTRF Assay Activation of Human NMUR2 or Human NMUR1 in Buffer Application of the Homogenous Time Resolved Fluorescence (HTRF) technology optimized for Gq coupled receptors has been described in detail in the Cisbio IP-One Gq kit manual. In brief, a FRET signal (FRET: fluorescence resonance energy transfer) is generated between the donor label of an IP-One antibody (anti-IP1-Tb) and the acceptor label of a tagged IP-One (IP1-d2). Agonism of a Gq coupled receptor increases intracellular IP-One, which competes with labeled IP-One and leads to a reduction of the FRET signal. Frozen stocks of CHO-K1 cells stably expressing the human NMUR1 or NMUR2 receptor were thawed and 5000 cells were seeded in culture medium (HAM'S F12, 10% FCS) into each well of a 384-well assay plate. After seeding, cells were incubated for 24 h in a humidified incubator at 37° C. and 5% CO2. Next, cells were washed once with 50 μL of wash buffer (20 mM Hepes, 1×HBSS, pH 7.4), followed by addition of either 10 μL of stimulation buffer (20 mM Hepes, 1×HBSS, 50 mM LiCl, 0.1% BSA, pH 7.4). Peptide agonists to be tested were dissolved in 100% DMSO and pre-diluted in stimulation buffer at a suitable concentration range for an 8 pt dose-response curve. 5 μL of peptide pre-dilution were then added to each well, followed by another 5 μL of stimulation buffer to give a final concentration of 1% DMSO. Samples were subsequently incubated for 1 hour in a humidified incubator at 37° C. After addition of 5 μL each of IP1-d2 and anti-IP1-Tb, samples were incubated for another 1 hour at room temperature and FRET signals (ratio 665 nm/620 nm) were measured. EC50 values were calculated by nonlinear regression using a 4-parameter sigmoidal curve fit.

T1 sequence (Q9GZQ4 whole entry): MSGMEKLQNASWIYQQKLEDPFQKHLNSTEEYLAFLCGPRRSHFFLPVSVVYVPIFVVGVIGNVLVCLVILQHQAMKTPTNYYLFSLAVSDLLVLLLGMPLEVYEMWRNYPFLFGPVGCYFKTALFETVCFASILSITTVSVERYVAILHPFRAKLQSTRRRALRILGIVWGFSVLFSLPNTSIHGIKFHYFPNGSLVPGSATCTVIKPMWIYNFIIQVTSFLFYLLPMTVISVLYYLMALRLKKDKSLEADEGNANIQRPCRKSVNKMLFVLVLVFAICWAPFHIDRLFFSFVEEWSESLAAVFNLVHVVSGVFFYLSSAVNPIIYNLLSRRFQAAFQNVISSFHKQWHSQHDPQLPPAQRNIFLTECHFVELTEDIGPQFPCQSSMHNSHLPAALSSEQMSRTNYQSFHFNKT

Row | SMILES | EC50 [1] | EC50 [2]
1 | CCCC[C@H](NC(=O)[C@H](CC(C)C)N(C)C(=O)[C@H](Cc1ccccc1)NC(=O)[C@H](Cc1ccc(O)cc1)NC(=O)CN1CCN(CCNC(=O)CN(C)C(=O)CN(C)C(=O)CN(C)C(=O)CN(C)C(=O)CN(C)C(=O)CN(C)C(=O)CN(C)C(=O)CN(C)C(=O)CN(C)C(=O)CN(C)C(=O)CN(C)C(=O)CN(C)C(=O)CN(C)C(=O)CN(C)C(=O)CN(C)C(=O)CC[C@H](NC(=O)CC[C@H](NC(=O)CC[C@H](NC(=O)CC[C@H](NC(=O)CCCCCCCCCCCCCCCCCCC(=O)O)C(=O)O)C(=O)O)C(=O)O)C(=O)O)CC1)C(=O)N[C@@H](CCCCN)C(=O)N1CCC[C@H]1C(=O)N[C@@H](CCCNC(=N)N)C(=O)NCC(N)=O [Compound 17, C20DA-gGlu4-Sar15-AEPipAc-Tyr-Phe-NMeLeu-Nle-Lys-Pro-Arg-Gly-NH2] (HELM PEPTIDE1{[O=C(O)CCCCCCCCCCCCCCCCCCC(=O)[*:2]].[gGlu].[gGlu].[gGlu].[gGlu].[Sar].[Sar].[Sar].[Sar].[Sar].[Sar].[Sar].[Sar].[Sar].[Sar].[Sar].[Sar].[Sar].[Sar].[Sar].[O=C(CN1CCN(CCN[*:1])CC1)[*:2]].Y.F.[meL].[Nle].K.P.R.G.[am]}$$$$V2.0) | 24.8 nM | 4.7 nM
2 | CCCC[C@H](NC(=O)[C@H](CC(C)C)N(C)C(=O)[C@H](Cc1ccccc1)NC(=O)[C@H](Cc1ccc(O)cc1)NC(=O)CN1CCN(CCNC(=O)CN(C)C(=O)CN(C)C(=O)CN(C)C(=O)CN(C)C(=O)CN(C)C(=O)CN(C)C(=O)CN(C)C(=O)CN(C)C(=O)CN(C)C(=O)CC[C@H](NC(=O)CC[C@H](NC(=O)CCCCCCCCCCCCCCCCC(=O)O)C(=O)O)C(=O)O)CC1)C(=O)N[C@@H](CCCNC(=N)N)C(=O)N1CCC[C@H]1C(=O)N[C@@H](CCCNC(=N)N)C(=O)NCC(N)=O [Compound 67, C18DA-gGlu2-Sar9-AEPipAc-Tyr-Phe-NMeLeu-Nle-Arg-Pro-Arg-Gly-NH2] (HELM PEPTIDE1{[O=C(O)CCCCCCCCCCCCCCCCC(=O)[*:2]].[gGlu].[gGlu].[Sar].[Sar].[Sar].[Sar].[Sar].[Sar].[Sar].[Sar].[Sar].[O=C(CN1CCN(CCN[*:1])CC1)[*:2]].Y.F.[meL].[Nle].R.P.R.G.[am]}$$$$V2.0) | 9.9 nM | 0.9 nM
3 | CCCC[C@H](NC(=O)[C@H](CC(C)C)N(C)C(=O)[C@H](Cc1ccccc1)NC(=O)[C@H](Cc1ccc(O)cc1)NC(=O)CN1CCN(C(=O)CN(C)C(=O)CN(C)C(=O)CN(C)C(=O)CN(C)C(=O)CN(C)C(=O)CN(C)C(=O)CN(C)C(=O)CN(C)C(=O)CN(C)C(=O)CN(C)C(=O)CN(C)C(=O)CN(C)C(=O)CN(C)C(=O)CN(C)C(=O)CN(C)C(=O)CC[C@H](NC(=O)CC[C@H](NC(=O)CC[C@H](NC(=O)CCCCCCCCCCCCCCCCCCC(=O)O)C(=O)O)C(=O)O)C(=O)O)CC1)C(=O)N[C@@H](CCCN)C(=O)N1CCC[C@H]1C(=O)N[C@@H](CCCNC(=N)N)C(=O)NCC(N)=O [Compound 80, C20DA-gGlu3-Sar15-PipAc-Tyr-Phe-NMeLeu-Nle-Orn-Pro-Arg-Gly-NH2] (HELM PEPTIDE1{[O=C(O)CCCCCCCCCCCCCCCCCCC(=O)[*:2]].[gGlu].[gGlu].[gGlu].[Sar].[Sar].[Sar].[Sar].[Sar].[Sar].[Sar].[Sar].[Sar].[Sar].[Sar].[Sar].[Sar].[Sar].[Sar].[O=C(CN1CCN([*:1])CC1)[*:2]].Y.F.[meL].[Nle].[Orn].P.R.G.[am]}$$$$V2.0) | 7.1 nM | 1.9 nM
4 | CCCC[C@H](NC(=O)[C@H](CC(C)C)N(C)C(=O)[C@H](Cc1ccccc1)NC(=O)[C@H](Cc1ccc(O)cc1)NC(=O)CN1CCN(C(=O)CN(C)C(=O)CN(C)C(=O)CN(C)C(=O)CN(C)C(=O)CN(C)C(=O)CN(C)C(=O)CN(C)C(=O)CN(C)C(=O)CN(C)C(=O)CN(C)C(=O)CN(C)C(=O)CN(C)C(=O)CC[C@H](NC(=O)CC[C@H](NC(=O)CC[C@H](NC(=O)CCCCCCCCCCCCCCCCCCC(=O)O)C(=O)O)C(=O)O)C(=O)O)CC1)C(=O)N[C@@H](CCCNC(=N)N)C(=O)N1CCC[C@H]1C(=O)N[C@@H](CCCNC(=N)N)C(=O)NCC(N)=O [Compound 78, C20DA-gGlu3-Sar12-PipAc-Tyr-Phe-NMeLeu-Nle-Arg-Pro-Arg-Gly-NH2] | 5.3 nM | 1.2 nM
5 | CCCC[C@H](NC(=O)[C@H](CC(C)C)N(C)C(=O)[C@H](Cc1ccccc1)NC(=O)[C@H](Cc1ccc(O)cc1)NC(=O)CN1CCN(CCNC(=O)CN(C)C(=O)CN(C)C(=O)CN(C)C(=O)CN(C)C(=O)CN(C)C(=O)CN(C)C(=O)CN(C)C(=O)CN(C)C(=O)CN(C)C(=O)CN(C)C(=O)CN(C)C(=O)CN(C)C(=O)CC[C@H](NC(=O)CC[C@H](NC(=O)CC[C@H](NC(=O)CC[C@H](NC(=O)CCCCCCCCCCCCCCCCC(=O)O)C(=O)O)C(=O)O)C(=O)O)C(=O)O)CC1)C(=O)N[C@@H](CCCN)C(=O)N1CCC[C@H]1C(=O)N[C@@H](CCCNC(=N)N)C(=O)NCC(N)=O [Compound 5, C18DA-gGlu4-Sar12-AEPipAc-Tyr-Phe-NMeLeu-Nle-Orn-Pro-Arg-Gly-NH2] | 10 nM | 1.8 nM

Continued, values first:

Row | EC50 [1] | EC50 [2] | SMILES
6 | 5.2 nM | 0.8 nM | CCCC[C@H](NC(=O)[C@H](CC(C)C)N(C)C(=O)[C@H](Cc1ccccc1)NC(=O)[C@H](Cc1ccc(O)cc1)NC(=O)CN1CCN(C(=O)CN(C)C(=O)CN(C)C(=O)CN(C)C(=O)CN(C)C(=O)CN(C)C(=O)CN(C)C(=O)CN(C)C(=O)CN(C)C(=O)CN(C)C(=O)CN(C)C(=O)CN(C)C(=O)CN(C)C(=O)CC[C@H](NC(=O)CC[C@H](NC(=O)CC[C@H](NC(=O)CCCCCCCCCCCCCCCCC(=O)O)C(=O)O)C(=O)O)C(=O)O)CC1)C(=O)N[C@@H](CCCNC(=N)N)C(=O)N1CCC[C@H]1C(=O)N[C@@H](CCCNC(=N)N)C(=O)NCC(N)=O [Compound 77, C18DA-gGlu3-Sar12-PipAc-Tyr-Phe-NMeLeu-Nle-Arg-Pro-Arg-Gly-NH2]
7 | 10.8 nM | 3.2 nM | CCCC[C@H](NC(=O)[C@H](CC(C)C)N(C)C(=O)[C@H](Cc1ccccc1)NC(=O)[C@H](Cc1ccc(O)cc1)NC(=O)CN1CCN(CCNC(=O)CN(C)C(=O)CN(C)C(=O)CN(C)C(=O)CN(C)C(=O)CN(C)C(=O)CN(C)C(=O)CN(C)C(=O)CN(C)C(=O)CN(C)C(=O)CN(C)C(=O)CN(C)C(=O)CN(C)C(=O)CC[C@H](NC(=O)CC[C@H](NC(=O)CC[C@H](NC(=O)CC[C@H](NC(=O)CCCCCCCCCCCCCCCCCCC(=O)O)C(=O)O)C(=O)O)C(=O)O)C(=O)O)CC1)C(=O)N[C@@H](CCN)C(=O)N1CCC[C@H]1C(=O)N[C@@H](CCCNC(=N)N)C(=O)NCC(N)=O [Compound 15, C20DA-gGlu4-Sar12-AEPipAc-Tyr-Phe-NMeLeu-Nle-Dbu-Pro-Arg-Gly-NH2]
8 | 14.9 nM | 4.5 nM | CCCC[C@H](NC(=O)[C@H](CC(C)C)N(C)C(=O)[C@H](Cc1ccccc1)NC(=O)[C@H](Cc1ccc(O)cc1)NC(=O)CN1CCN(CCNC(=O)CN(C)C(=O)CN(C)C(=O)CN(C)C(=O)CN(C)C(=O)CN(C)C(=O)CN(C)C(=O)CN(C)C(=O)CN(C)C(=O)CN(C)C(=O)CN(C)C(=O)CN(C)C(=O)CN(C)C(=O)CC[C@H](NC(=O)CC[C@H](NC(=O)CC[C@H](NC(=O)CCCCCCCCCCCCCCCCCCC(=O)O)C(=O)O)C(=O)O)C(=O)O)CC1)C(=O)N[C@@H](CCCNC(=N)N)C(=O)N(C)[C@@H](C)C(=O)N[C@@H](CCCNC(=N)N)C(=O)NCC(N)=O [Compound 63, C20DA-gGlu3-Sar12-AEPipAc-Tyr-Phe-NMeLeu-Nle-Arg-NMeAla-Arg-Gly-NH2]
